Test results from PMC6017000, “Distribution Assessments of Coumarins from Angelicae Pubescentis Radix in Rat Cerebrospinal Fluid and Brain by Liquid Chromatography Tandem Mass Spectrometry Analysis” (Molecules : A Journal of Synthetic Chemistry and Natural …, 2018).
Where two headings read alike, the source gives them in different places.

How the values were obtained:
[1] = rat, in vivo, po
Description: (§1) Each weighed brain sample was homogenized with a 2-fold volume of normal saline solution. IS solution (10 μL, 200 ng/mL) was added to 300 μL of the homogenate. The mixture was then extracted with a 3-fold volume of ethyl acetate. The mixture was vortexed for 1 min and centrifuged at 16,000× g for 10 min. The supernatant was transferred out and dried under a gentle constant flow of nitrogen. The residue was then dissolved with 100 μL of MeOH and ultrasonically (power 250 W, frequency 40 KHz) extracted for 10 min. After centrifugation at 16,000× g for 10 min, the supernatant was drawn out into a clean vial, and 5 μL of each were injected into the UPLC–MS/MS system for analysis.
(§2) The UPLC-MS/MS system consisted of a Shimadzu Nexera UPLC instrument connected to a Shimadzu LCMS-8050 mass spectrometer via the electrospray ionization interface (Shimadzu Corp., Kyoto, Japan). Samples were separated on an ACQUITY UPLC BEH RP18 column (2.1 × 100 mm, 1.7 µm, Waters, Milford, MA, USA) equipped with a BEH RP18 guard column (2.1 × 5 mm, 1.7 µm, Waters, Milford, MA, USA). The column temperature was 30 °C, and the flow rate was 0.4 mL/min. The sample injection volume was 5 µL. The mobile phases consisted of 0.1% (v/v) formic acid in water (A) and ACN (B). The LC gradient elution program and mass working parameters were the same as our previous report [6]. […] The precursor ion, product ion, Q1, Q3, CE and DT were optimized.
(§3) The time schedule included 9 time-points, and six rats were sampled at each time-point. The rats were fasted overnight with free access to water before the experiment. APRE was suspended with the normal saline and orally administered to the rats at a single dose of 4 g/kg. The animals had free access to water during the experiment.
(§4) Cardiac perfusion was carried out quickly with physiological saline after CSF collection at each time-point. The rat brains were separated, weighed and then stored at −80 °C until treatment.
(§5) Results were expressed as the mean ± standard deviation (SD). The UPLC-MS/MS data were processed with Labsolutions 5.65 software (Shimadzu Corp., Kyoto, Japan). The pharmacokinetic parameters were calculated with the Drug and Statistics 2.0 software (Mathematical Pharmacology Professional Committee of China, Shanghai, China).

[2] = rat, in vivo, po; remark: listed apart in the source
Description: (§6) Aliquots of 50 μL CSF samples with IS (10 μL, 200 ng/mL) were extracted with 600 μL ethyl acetate.
(§7) The UPLC-MS/MS system consisted of a Shimadzu Nexera UPLC instrument connected to a Shimadzu LCMS-8050 mass spectrometer via the electrospray ionization interface (Shimadzu Corp., Kyoto, Japan). Samples were separated on an ACQUITY UPLC BEH RP18 column (2.1 × 100 mm, 1.7 µm, Waters, Milford, MA, USA) equipped with a BEH RP18 guard column (2.1 × 5 mm, 1.7 µm, Waters, Milford, MA, USA). The column temperature was 30 °C, and the flow rate was 0.4 mL/min. The sample injection volume was 5 µL. The mobile phases consisted of 0.1% (v/v) formic acid in water (A) and ACN (B). […] The precursor ion, product ion, Q1, Q3, CE and DT were optimized.
as §3
(§8) Rats were anesthetized by an intraperitoneal dose of chloral hydrate (350 mg/kg) at 0.25, 0.5, 1, 1.5, 2, 4, 6, 8, 12 h after oral administration of APRE. A dorsal midline cutaneous incision was made, and the muscle at the craniocervical junction was bluntly dissected to expose the atlanto-occipital membrane. The cisterna magna was punctured with a thin syringe needle, and a microinjector connected with the needle was used to collect the interior CSF carefully [27]. Clear CSF was transferred to a clean microtube and frozen at −80 °C until further use. Blood contaminated samples were excluded.
as §5

[3] = parameters: method as in PMID 28654868; settings: rat plasma, oral APRE; cited from earlier work
[4] = Stability of QC samples in rat brain homogenate (freeze-thaw, room temperature); format: physicochemical; settings: percentage remaining, n = 5; for Stability room temperature: room temperature 24 h; for Stability Freeze-thaw: three freeze-thaw cycles
[5] = Rat CSF distribution after oral administration of APRE (UPLC-MS/MS)
Description: as §6, §7, §3, §8, §5

[6] = Stability of QC samples in aCSF (freeze-thaw, room temperature); format: physicochemical; settings: percentage remaining, n = 5; for Stability room temperature: room temperature 24 h; for Stability Freeze-thaw: three freeze-thaw cycles
[7] = Rat brain distribution after oral administration of APRE (UPLC-MS/MS); settings: for log BBexpt.: log (AUC0→∞/brain/AUC0→∞/plasma), oral APRE; for log BBexpt. / Tmax / half-life: rat; for AUC0→t / AUC0→∞ / CLz/F / Vz/F: rat brain, oral APRE 4 g/kg, mean ± SD, n = 6; for Tmax / half-life: brain, po, 4 g/kg
Description: as §1, §2, §3, §4, §5

in vitro BBB model = tested on: in vitro BBB model; parameters: method as in PMID 26121397; settings: based on bidirectional Papp values; cited from earlier work

For `CC(C)=CCOc1c2occc2cc2ccc(=O)oc12` [imperatorin], the “MRM response in brain” value [1] was “under LLOQ” and the “MRM response in CSF” value [2] was “under LLOQ”.

For `CC=C(C)C(=O)OC(C(O)c1cc2ccc(=O)oc2cc1OC)C(C)(C)O` (centres unmarked) [Compound 9, angelol B], the CL in plasma [3] is given as 110.26 ± 39.27 g/h/kg, the t1/2 in plasma [3] is given as 6.63 ± 4.37 h and the Stability room temperature ([4]; rat brain QC 5 ng/mL) is given as 96.24±7.79%. For the same compound, the “Stability Freeze-thaw” value ([4]; rat brain QC 5 ng/mL) was 101.51±11.81%, the Stability room temperature ([4]; rat brain QC 80 ng/mL) was 97.77±8.23% and the “Stability Freeze-thaw” value ([4]; rat brain QC 80 ng/mL) was 95.20±9.40%. The Stability room temperature ([4]; rat brain QC 160 ng/mL) was 96.20±7.07%, the “Stability Freeze-thaw” value ([4]; rat brain QC 160 ng/mL) was 102.98±8.06% and the “total amount percentage of CSF/plasma” value ([5]; (0.48 × AUC0→∞/CSF)/(16 × AUC0→∞/plasma), rat, oral APRE) was “greater than 1%”. The AUC(0-inf) ([5]; rat, CSF, po, 4 g/kg) was 28.2 ± 3.94 ng·h/mL, the AUC(0-t) ([5]; rat, CSF, po, 4 g/kg) was 20 ± 3.35 ng·h/mL and the Cmax ([5]; rat, CSF, po, 4 g/kg) was 7.65 ± 4.14 ng/mL. It also gave a Tmax ([5]; rat, CSF, po, 4 g/kg) of 22.8 ± 18.6 min, a half-life ([5]; rat, CSF, po, 4 g/kg) of 421 ± 151 min and a Stability room temperature ([6]; aCSF QC 5 ng/mL) of 97.45±4.87%. The “Stability Freeze-thaw” value ([6]; aCSF QC 5 ng/mL) was 95.14±6.53%, the Stability room temperature ([6]; aCSF QC 40 ng/mL) was 95.67±3.47% and the “Stability Freeze-thaw” value ([6]; aCSF QC 40 ng/mL) was 95.36±7.29%. The Stability room temperature ([6]; aCSF QC 80 ng/mL) was 96.66±9.22%, the “Stability Freeze-thaw” value ([6]; aCSF QC 80 ng/mL) was 96.89±4.68% and the “log BBexpt.” value [7] was −0.44. The AUC0→t [7] was 21.06 ± 8.70 µg·h/kg, the “AUC0→∞” value [7] was 25.06 ± 8.03 µg·h/kg and the CLz/F [7] was 301.26 ± 92.33 g/h/kg. It also gave a Vz/F [7] of 1299.16 ± 842.00 g/kg, a Tmax [7] of 17.4 ± 6 min and a half-life [7] of 166 ± 69 min.

For `CC(C)=CCOc1c2ccoc2cc2oc(=O)ccc12` [Compound 4, isoimperatorin], the Stability room temperature ([4]; rat brain QC 5 ng/mL) was 91.59±10.74%, the “Stability Freeze-thaw” value ([4]; rat brain QC 5 ng/mL) was 104.96±13.66% and the Stability room temperature ([4]; rat brain QC 80 ng/mL) was 88.65±10.02%. The “Stability Freeze-thaw” value ([4]; rat brain QC 80 ng/mL) was 93.10±4.03%, the Stability room temperature ([4]; rat brain QC 160 ng/mL) was 86.85±3.37% and the “Stability Freeze-thaw” value ([4]; rat brain QC 160 ng/mL) was 89.68±3.96%. The “MRM response in CSF” value ([5]; rat CSF after oral APRE) was “under LLOQ”, the “log BBexpt.” value [7] was −0.16 and the AUC0→t [7] was 15.51 ± 4.82 µg·h/kg. For the same compound, the “AUC0→∞” value [7] was 21.56 ± 14.56 µg·h/kg, the CLz/F [7] was 52.86 ± 24.79 g/h/kg and the Vz/F [7] was 245.44 ± 108.54 g/kg. For the same compound, the Tmax [7] was 19.8 ± 7.8 min, the half-life [7] was 212 ± 81 min and the “absorption classification across the in vitro BBB model” value (in vitro BBB model) was “moderately-absorbed”.
